From article PMC7717600, “Novel [(N-alkyl-3-indolylmethylene)hydrazono]oxindoles arrest cell cycle and induce cell apoptosis by inhibiting CDK2 and Bcl-2: synthesis, biological evaluation and in silico studies” (Journal of Enzyme Inhibition and Medicinal Chemistry, 2020)

Columns and labels:
[1] = tested on: NCI-H460; test: NCI SRB screening; format: cell-based, human; conditions: NCI-H460, 10 μM
[2] = tested on: COLO 205; test: NCI SRB screening; format: cell-based, human; conditions: COLO 205, 10 μM
[3] = tested on: HCC-2998; test: NCI SRB screening; format: cell-based, human; conditions: HCC-2998, 10 μM
[4] = tested on: LOX IMVI; test: NCI SRB screening; format: cell-based, human; conditions: 10 μM
[5] = tested on: PC-3; test: NCI SRB screening; format: cell-based, human; conditions: PC-3, 10 μM
[6] = tested on: A-549; test: SRB anti-proliferative assay; format: cell-based; conditions: Homo sapiens, A549; A-549, SRB, mean ± SE of 3
[7] = tested on: HCT-116; test: SRB anti-proliferative assay; format: cell-based; conditions: Homo sapiens; HCT-116, SRB, mean ± SE of 3
[8] = tested on: MDA-MB-231; test: SRB anti-proliferative assay; format: cell-based; conditions: Homo sapiens; MDA-MB-231, SRB, mean ± SE of 3
[9] = tested on: CCRF-CEM; conditions: 10 μM
[10] = tested on: HL-60(TB); conditions: HL-60(TB), 10 μM
[11] = tested on: MOLT-4; conditions: MOLT-4, 10 μM
[12] = tested on: RPMI-8226; conditions: RPMI-8226, 10 μM
[13] = tested on: SR; conditions: 10 μM
[14] = tested on: EKVX; conditions: 10 μM
[15] = tested on: HOP-62; conditions: HOP-62, 10 μM
[16] = tested on: HOP-92; conditions: HOP-92, 10 μM
[17] = tested on: NCI-H522; conditions: NCI-H522, 10 μM
[18] = tested on: HCT-116; conditions: HCT-116, 10 μM
[19] = tested on: HCT-15; conditions: HCT-15, 10 μM
[20] = tested on: HT29; conditions: HT29, 10 μM
[21] = tested on: KM12; conditions: KM12, 10 μM
[22] = tested on: SF-268; conditions: SF-268, 10 μM
[23] = tested on: SNB-19; conditions: SNB-19, 10 μM
[24] = tested on: MALME-3M; conditions: 10 μM
[25] = tested on: SK-MEL-2; conditions: SK-MEL-2, 10 μM
[26] = tested on: SK-MEL-28; conditions: SK-MEL-28, 10 μM
[27] = tested on: SK-MEL-5; conditions: SK-MEL-5, 10 μM
[28] = tested on: UACC-257; conditions: UACC-257, 10 μM
[29] = tested on: OVCAR-3; conditions: OVCAR-3, 10 μM
[30] = tested on: OVCAR-4; conditions: OVCAR-4, 10 μM
[31] = tested on: OVCAR-5; conditions: OVCAR-5, 10 μM
[32] = tested on: NCI/ADR-RES; conditions: 10 μM
[33] = tested on: SK-OV-3; conditions: SK-OV-3, 10 μM
[34] = tested on: 786-0; conditions: 786-0, 10 μM
[35] = tested on: ACHN; conditions: 10 μM
[36] = tested on: RXF 393; conditions: RXF 393, 10 μM
[37] = tested on: SN12C; conditions: 10 μM
[38] = tested on: TK-10; conditions: TK-10, 10 μM
[39] = tested on: UO-31; conditions: UO-31, 10 μM
[40] = tested on: DU-145; conditions: DU-145, 10 μM
[41] = tested on: MDA-MB-231/ATCC; conditions: MDA-MB-231, 10 μM
[42] = tested on: HS 578T; conditions: 10 μM
[43] = tested on: BT-549; conditions: BT-549, 10 μM

`C=CCn1cc(C=NN=C2C(=O)Nc3c(F)cccc32)c2ccccc21` [Compound 10c] was tested, and the GI % [1] was “– (Only GI % higher than 10% are shown)”, the GI % [2] was “– (Only GI % higher than 10% are shown)” and the GI % [3] was “– (Only GI % higher than 10% are shown)”. The GI % [4] was “– (Only GI % higher than 10% are shown)”, the GI % [5] was 10% and the IC50 [6] was 43.8 ± 2.96 µM. The IC50 [7] was 7.3 ± 0.47 µM, the IC50 [8] was 35.4 ± 1.92 µM and the GI % [9] was 17%. The GI % [10] was “– (Only GI % higher than 10% are shown)”, the GI % [11] was 19% and the GI % [12] was “– (Only GI % higher than 10% are shown)”. The GI % [13] was 58%, the GI % [14] was 15% and the GI % [15] was “– (Only GI % higher than 10% are shown)”. The GI % [16] was “– (Only GI % higher than 10% are shown)”, the GI % [17] was 34% and the GI % [18] was 28%. For the same compound, the GI % [19] was 22%, the GI % [20] was “– (Only GI % higher than 10% are shown)” and the GI % [21] was “– (Only GI % higher than 10% are shown)”. For the same compound, the GI % [22] was “– (Only GI % higher than 10% are shown)”, the GI % [23] was “– (Only GI % higher than 10% are shown)” and the GI % [24] was “– (Only GI % higher than 10% are shown)”. For the same compound, the GI % [25] was “– (Only GI % higher than 10% are shown)”, the GI % [26] was “– (Only GI % higher than 10% are shown)” and the GI % [27] was “– (Only GI % higher than 10% are shown)”. The GI % [28] was “– (Only GI % higher than 10% are shown)”, the GI % [29] was 13% and the GI % [30] was 22%. The GI % [31] was “– (Only GI % higher than 10% are shown)”, the GI % [32] was “– (Only GI % higher than 10% are shown)” and the GI % [33] was “– (Only GI % higher than 10% are shown)”. For the same compound, the GI % [34] was “– (Only GI % higher than 10% are shown)”, the GI % [35] was 11% and the GI % [36] was “– (Only GI % higher than 10% are shown)”. The GI % [37] was “– (Only GI % higher than 10% are shown)”, the GI % [38] was “– (Only GI % higher than 10% are shown)” and the GI % [39] was 29%. The GI % [40] was “– (Only GI % higher than 10% are shown)”, the GI % [41] was “– (Only GI % higher than 10% are shown)” and the GI % [42] was “– (Only GI % higher than 10% are shown)”. For the same compound, the GI % [43] was “– (Only GI % higher than 10% are shown)”.

`C=CCn1cc(C=NN=C2C(=O)Nc3ccc(Cl)cc32)c2ccccc21` [Compound 10d] was tested, and the GI % [1] was “– (Only GI % higher than 10% are shown)”, the GI % [2] was “– (Only GI % higher than 10% are shown)” and the GI % [3] was “– (Only GI % higher than 10% are shown)”. The GI % [4] was “– (Only GI % higher than 10% are shown)”, the GI % [5] was “– (Only GI % higher than 10% are shown)” and the IC50 [6] was 53.1 ± 4.13 µM. The IC50 [7] was 28.5 ± 1.59 µM, the IC50 [8] was 42.9 ± 2.51 µM and the GI % [9] was “– (Only GI % higher than 10% are shown)”. For the same compound, the GI % [10] was “– (Only GI % higher than 10% are shown)”, the GI % [11] was 14% and the GI % [12] was “– (Only GI % higher than 10% are shown)”. The GI % [13] was 33%, the GI % [14] was 33% and the GI % [15] was “– (Only GI % higher than 10% are shown)”. For the same compound, the GI % [16] was “– (Only GI % higher than 10% are shown)”, the GI % [17] was 17% and the GI % [18] was “– (Only GI % higher than 10% are shown)”. For the same compound, the GI % [19] was 10%, the GI % [20] was “– (Only GI % higher than 10% are shown)” and the GI % [21] was “– (Only GI % higher than 10% are shown)”. For the same compound, the GI % [22] was “– (Only GI % higher than 10% are shown)”, the GI % [23] was “– (Only GI % higher than 10% are shown)” and the GI % [24] was “– (Only GI % higher than 10% are shown)”. For the same compound, the GI % [25] was “– (Only GI % higher than 10% are shown)”, the GI % [26] was “– (Only GI % higher than 10% are shown)” and the GI % [27] was “– (Only GI % higher than 10% are shown)”. For the same compound, the GI % [28] was “– (Only GI % higher than 10% are shown)”, the GI % [29] was “– (Only GI % higher than 10% are shown)” and the GI % [30] was “– (Only GI % higher than 10% are shown)”. For the same compound, the GI % [31] was “– (Only GI % higher than 10% are shown)”, the GI % [32] was “– (Only GI % higher than 10% are shown)” and the GI % [33] was “– (Only GI % higher than 10% are shown)”. For the same compound, the GI % [34] was “– (Only GI % higher than 10% are shown)”, the GI % [35] was “– (Only GI % higher than 10% are shown)” and the GI % [36] was “– (Only GI % higher than 10% are shown)”. The GI % [37] was “– (Only GI % higher than 10% are shown)”, the GI % [38] was “– (Only GI % higher than 10% are shown)” and the GI % [39] was 23%. The GI % [40] was “– (Only GI % higher than 10% are shown)”, the GI % [41] was “– (Only GI % higher than 10% are shown)” and the GI % [42] was “– (Only GI % higher than 10% are shown)”. For the same compound, the GI % [43] was “– (Only GI % higher than 10% are shown)”.
